Where two headings read alike, the source gives them in different places.
Experiments:
DRD2L [1] = target: T1, DRD2L (Homo sapiens, UniProt P14416); details: statement on ketamine, no own data shown; cited from earlier work
Mecp2-null mice = details: cited from earlier work
Sigma 2 [2] = target: T2, Sigma 2 (Homo sapiens, UniProt Q5BJF2); details: literature (Pergolizi, 2023; Bonaventura, 2021); cited from earlier work
NMDAR 1A/2B = NMDAR 1A/2B (Homo sapiens, UniProt Q05586+Q13224); test: NMDAR 1A/2B antagonist (ion channel blocker) assay; assay type: cell-based
Opiate μ = Opiate μ (Homo sapiens, UniProt P35372); test: Opiate μ binding assay
Opiate k = Opiate k (Homo sapiens, UniProt P41145); test: Opiate k binding assay
DRD2L [3] = target: T1, DRD2L; test: D2L human dopamine GPCR cell based agonist cAMP assay
Sigma 2 [4] = target: T2, Sigma 2; test: Sigma 2 binding assay

T1 sequence (P14416 whole entry): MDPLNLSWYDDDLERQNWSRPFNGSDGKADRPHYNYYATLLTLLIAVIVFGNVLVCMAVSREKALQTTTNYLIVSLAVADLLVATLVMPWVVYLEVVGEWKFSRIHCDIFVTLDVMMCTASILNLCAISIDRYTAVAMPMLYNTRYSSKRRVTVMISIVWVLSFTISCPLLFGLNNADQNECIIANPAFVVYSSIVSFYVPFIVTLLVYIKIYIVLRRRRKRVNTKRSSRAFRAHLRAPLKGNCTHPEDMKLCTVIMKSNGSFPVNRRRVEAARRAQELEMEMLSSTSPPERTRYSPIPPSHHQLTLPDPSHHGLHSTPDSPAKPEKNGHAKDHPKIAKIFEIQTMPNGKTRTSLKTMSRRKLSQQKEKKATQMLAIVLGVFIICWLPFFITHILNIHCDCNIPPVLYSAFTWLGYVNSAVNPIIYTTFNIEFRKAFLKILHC
Sequence of Opiate k (P41145 whole entry): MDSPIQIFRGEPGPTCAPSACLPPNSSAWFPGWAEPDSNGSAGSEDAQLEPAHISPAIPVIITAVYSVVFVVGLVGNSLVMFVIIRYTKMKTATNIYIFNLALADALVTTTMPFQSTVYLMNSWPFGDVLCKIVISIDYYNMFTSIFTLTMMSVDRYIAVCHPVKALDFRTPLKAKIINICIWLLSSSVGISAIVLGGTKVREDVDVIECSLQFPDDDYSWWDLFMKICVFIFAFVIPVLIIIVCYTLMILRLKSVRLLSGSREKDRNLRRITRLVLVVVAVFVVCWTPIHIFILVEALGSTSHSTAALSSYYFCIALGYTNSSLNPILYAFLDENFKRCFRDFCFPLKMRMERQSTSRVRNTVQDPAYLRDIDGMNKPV
Sequence of NMDAR 1A/2B (Q13224 27-1484, other chains not shown): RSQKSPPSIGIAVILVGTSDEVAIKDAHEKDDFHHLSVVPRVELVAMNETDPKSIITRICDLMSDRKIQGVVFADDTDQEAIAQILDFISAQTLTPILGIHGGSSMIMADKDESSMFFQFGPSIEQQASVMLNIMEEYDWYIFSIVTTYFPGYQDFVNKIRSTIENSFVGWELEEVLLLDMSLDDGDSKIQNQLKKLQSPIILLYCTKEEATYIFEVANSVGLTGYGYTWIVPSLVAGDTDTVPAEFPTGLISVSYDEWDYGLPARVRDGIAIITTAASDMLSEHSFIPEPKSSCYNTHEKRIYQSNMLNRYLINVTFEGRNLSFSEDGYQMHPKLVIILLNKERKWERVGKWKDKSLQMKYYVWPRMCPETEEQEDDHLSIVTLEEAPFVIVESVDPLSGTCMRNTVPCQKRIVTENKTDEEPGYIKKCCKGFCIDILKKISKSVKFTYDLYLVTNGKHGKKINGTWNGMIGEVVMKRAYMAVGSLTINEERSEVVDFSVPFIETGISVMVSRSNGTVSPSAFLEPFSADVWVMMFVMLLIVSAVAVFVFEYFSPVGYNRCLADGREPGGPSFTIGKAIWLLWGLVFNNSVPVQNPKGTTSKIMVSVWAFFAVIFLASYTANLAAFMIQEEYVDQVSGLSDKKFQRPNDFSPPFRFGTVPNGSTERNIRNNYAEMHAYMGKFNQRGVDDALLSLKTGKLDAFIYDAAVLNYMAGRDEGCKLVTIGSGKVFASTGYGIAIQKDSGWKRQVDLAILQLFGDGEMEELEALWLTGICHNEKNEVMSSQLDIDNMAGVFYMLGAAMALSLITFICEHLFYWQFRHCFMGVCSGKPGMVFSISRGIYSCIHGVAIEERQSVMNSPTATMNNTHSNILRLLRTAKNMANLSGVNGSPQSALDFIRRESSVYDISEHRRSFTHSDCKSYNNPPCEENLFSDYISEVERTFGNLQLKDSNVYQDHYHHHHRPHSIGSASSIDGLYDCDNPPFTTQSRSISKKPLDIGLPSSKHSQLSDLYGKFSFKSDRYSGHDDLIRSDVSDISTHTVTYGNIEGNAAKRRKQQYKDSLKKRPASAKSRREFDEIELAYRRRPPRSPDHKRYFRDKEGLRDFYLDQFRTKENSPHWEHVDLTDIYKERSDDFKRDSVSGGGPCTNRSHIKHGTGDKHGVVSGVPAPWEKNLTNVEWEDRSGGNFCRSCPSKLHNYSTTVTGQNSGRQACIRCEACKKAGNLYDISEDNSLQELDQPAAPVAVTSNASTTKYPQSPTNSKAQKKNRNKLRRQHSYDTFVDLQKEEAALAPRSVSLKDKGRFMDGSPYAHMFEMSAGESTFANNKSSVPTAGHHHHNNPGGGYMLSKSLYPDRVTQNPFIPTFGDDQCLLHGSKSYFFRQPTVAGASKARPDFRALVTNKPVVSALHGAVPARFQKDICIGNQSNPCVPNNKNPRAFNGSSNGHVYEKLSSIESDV
T2 sequence (Q5BJF2 whole entry): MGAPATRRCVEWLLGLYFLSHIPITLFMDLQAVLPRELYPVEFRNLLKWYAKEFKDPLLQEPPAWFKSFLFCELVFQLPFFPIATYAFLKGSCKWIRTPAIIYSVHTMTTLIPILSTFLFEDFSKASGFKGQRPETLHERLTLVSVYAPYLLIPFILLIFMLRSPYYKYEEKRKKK
Sequence of Opiate μ (P35372 whole entry): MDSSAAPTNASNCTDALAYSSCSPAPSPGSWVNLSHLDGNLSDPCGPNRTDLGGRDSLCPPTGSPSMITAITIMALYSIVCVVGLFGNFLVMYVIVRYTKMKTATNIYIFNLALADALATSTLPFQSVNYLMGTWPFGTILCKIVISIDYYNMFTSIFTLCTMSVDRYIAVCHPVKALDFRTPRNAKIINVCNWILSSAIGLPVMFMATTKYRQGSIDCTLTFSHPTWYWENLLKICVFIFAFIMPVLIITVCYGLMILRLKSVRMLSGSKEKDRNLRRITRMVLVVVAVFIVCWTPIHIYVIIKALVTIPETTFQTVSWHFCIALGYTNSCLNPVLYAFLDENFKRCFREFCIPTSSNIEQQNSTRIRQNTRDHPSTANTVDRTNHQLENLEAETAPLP

SMILES	Affinity for dopamine 2 receptors (in words) (DRD2L [1])	Improvement of survival (Mecp2-null mice; 8 mg/kg IP every day for 40 days (total 320 mg/kg), at 80 days post natal)	Efficacy of treatment (in words) (Mecp2-null mice; 8 mg/kg/day ip from day 15 to day 55 (320 mg/kg total))	Efficacy of treatment (in words) (Mecp2-null mice; 8 mg/kg/day ip from day 30 to day 55 (200 mg/kg total))	Survival (Mecp2-null mice; after treatment with 320 mg/kg of ketamine, published data)	Binding to sigma2 receptors (in words) (Sigma 2 [2])	IC50 (NMDAR 1A/2B; IC50, NMDAR 1A/2B antagonist assay, FIG. 15A)	IC50 (NMDAR 1A/2B; NMDAR 1A/2B Ion channel blocker, Table 5)	Ki, Opioid μ receptors (Opiate μ)	IC50 (Opiate k)	Ki (Opiate k)	Binding to Dopamine 2 receptors (in words) (DRD2L [3])	IC50 (Sigma 2 [4])
CNC1(c2ccccc2Cl)CCCCC1=O (racemic) [Ketamine, (R,S)-ketamine]	not shown any affinity	50%	some efficacy	not effective	50%	binds sigma2 receptors at mM concentrations							
NC1(c2ccccc2Cl)CCCCC1=O (racemic) [NorKetamine, (R,S)-Norketamine]							6.96 µM	6.9 µM	does not bind	667 µM	381 µM	does not appear to bind	246 µM

From patent US20260151492A1 (priority 2022, published 2026)
